What was measured:
[1] = tested on: DME-related biallelic markers; experiment: Genotyping by microsequencing: allele frequencies of DME-related biallelic markers in random Caucasian populations; parameters: species or system human; conditions: Caucasian FRENCH
Protocol: The biallelic markers identified as described above were further confirmed and their respective frequencies were determined through microsequencing. Microsequencing was carried out on individual DNA samples obtained as described herein.
Amplification of genomic DNA fragments from individual DNA samples was performed as described in Example 1 using the same set of PCR primers (See Table 17). Microsequencing was carried out on the amplified fragments using specific primers (See Table 16). The preferred primers used in microsequencing had about 19 nucleotides in length and hybridized just upstream of the considered polymorphic base.
The microsequencing reactions were performed as follows: 5 μl of PCR products were added to 5 μl purification mix (2U SAP (Shrimp alkaline phosphate) (Amersham E70092X)); 2U Exonuclease I (Amersham E70073Z); and 1 μl SAP buffer (200 mM Tris-HCl pH8, 100 mM MgCl2) in a microtiter plate. The reaction mixture was incubated 30 minutes at 37° C., and denatured 10 minutes at 94° C. afterwards. To each well was then added 20 μl of microsequencing reaction mixture containing: 10 pmol microsequencing oligonucleotide (19 mers, GENSET, crude synthesis, 5 OD), 1 U Thermosequenase (Amersham E79000G), 1.25 μl Thermosequenase buffer (260 mM Tris HCl pH 9.5, 65 mM MgCl2), and the two appropriate fluorescent ddNTPs complementary to the nucleotides at the polymorphic site corresponding to both polymorphic bases (11.25 nM TAMRA-ddTTP; 16.25 nM ROX-ddCTP; 1.675 nM REG-ddATP; 1.25 nM RHO-ddGTP; Perkin Elmer, Dye Terminator Set 401095). After 4 minutes at 94° C., 20 PCR cycles of 15 sec at 55° C., 5 sec at 72° C., and 10 sec at 94° C. were carried out in a Tetrad PTC-225 thermocycler (MJ Research). The microtiter plate was centrifuged 10 sec at 1500 rpm. The unincorporated dye terminators were removed by precipitation with 19 μl MgCl2 2 mM and 55 μl 100% ethanol. After 15 minute incubation at room temperature, the microtiter plate was centrifuged at 3300 rpm 15 minutes at 4° C. After discarding the supernatants, the microplate was evaporated to dryness under reduced pressure (Speed Vac). Samples were resuspended in 2.5 μl formamide EDTA loading buffer and heated for 2 min at 95° C. 0.8 μl microsequencing reaction were loaded on a 10% (19:1) polyacrylamide sequencing gel. The data were collected by an ABI PRISM 377 DNA sequencer and processed using the GENESCAN software (Perkin Elmer).
The frequencies for both alleles are shown for preferred MGST-II, ME1, UGT1A7 and UGT2B4 markers in Tables 19, 20, 21 and 22, respectively.

[2] = tested on: smooth muscle in peripheral airways; conditions: both in vitro and in vivo; cited from earlier work
[3] = tested on: serum level of alanine aminotransferase (ALT); experiment: Clinical study of zileuton: hepatotoxicity monitored by serum ALT level; assay type: in vivo, human; conditions: asthmatic individuals treated with zileuton
Text: In a preferred embodiment, the trait considered was a side-effect upon drug treatment, the study involved two populations derived from a clinical study of the anti-asthmatic drug zileuton. The case population was composed of asthmatic individuals treated with zileuton showing zileuton-associated hepatotoxicity monitored by the serum level of alanine aminotransferase (ALT) and the control population was composed of asthmatic individuals treated with zileuton and having no increased serum level of ALT. Inclusion criteria and association between the biallelic markers of the present invention and zileuton-associated hepatotoxicity are further described below and in Example 4.
Zileuton (Zyflo™) is an active inhibitor of 5-lipoxygenase, the enzyme that catalyzes the formation of leukotrienes from arachidonic acid, indicated for prophylaxis and chronic treatment of asthma. […] In the present invention the ALT test (serum level of alanine aminotransferase) was used, which is considered the most sensitive indicator of liver injury.
Two groups of unrelated individuals were used in this association study in accordance with the invention: the case-control populations. The case population was composed of 89 asthmatic individuals treated with zileuton showing zileuton-associated hepatotoxicity monitored by the serum level of alanine aminotransferase (ALT) and the control population was composed of 208 asthmatic individuals treated with zileuton and having no increased serum ALT level.
The side effect examined in this study was the hepatotoxicity experienced by asthmatic individuals as a result of their treatment with Zileuton as part of a clinical study. […] Hepatotoxicity was monitored by measuring the serum levels of alanine aminotransferase (ALT), which is a sensitive indicator of liver cell damage.
As mentioned above, an association study is more informative if the populations considered present extreme phenotypes. […]

## 12-124-194 (DNA TCTAGCTGGAGCCTGCGCTTGAGYAAAGAGCTGAACAACCAGATTGC; allele 24: 12-124-194 : polymorphic base C or T; listed as Homo Sapiens)
[1]
  allele frequency C: 19.41
  allele frequency T: 80.59

## 12-141-159 (DNA CTCAGTGAGTGAGTTGAAGGGCTYAGTCAACTATTTGTTGATACCAC; allele 24: 12-141-159 : polymorphic base T or C; listed as Homo Sapiens)
[1]
  allele frequency A: 37.5
  allele frequency G: 62.5

## 12-142-321 (DNA GCAGCACAGCGGTCTGCGTGGAARTGAGGCACCGGGTGTGGGCGGGG; allele 24: 12-142-321 : polymorphic base A or G; listed as Homo Sapiens)
[1]
  allele frequency A: 54.44
  allele frequency G: 45.56

## 12-143-453 (DNA TGGAGTGGAGCTTGGTTCTGGCCRTGGGCTGGGGAAGGGAGGTCCGG; allele 24: 12-143-453 : polymorphic base A or G; listed as Homo Sapiens)
[1]
  allele frequency A: 50.61
  allele frequency G: 49.39

## CCCCC/C=C\C\C=C/C=C/C=C/[C@@H](SC[C@H](NC(=O)CC[C@H](N)C(=O)O)C(=O)NCC(=O)O)[C@@H](O)CCCC(=O)O [LTC4, leukotriene C4]
[2]
  bronchoconstrictor potency relative to histamine: 1000 times

## CCCCC/C=C\C\C=C/C=C/C=C/[C@@H](SC[C@H](N)C(=O)NCC(=O)O)[C@@H](O)CCCC(=O)O [LTD4, Leukotriene D4]
[2]
  bronchoconstrictor potency relative to histamine: 1000 times

## CC(c1cc2ccccc2s1)N(O)C(N)=O (stereo not shown) [Zileuton, zileuton]
[3]; 89 individuals
  ALT+ population (at least 3 times the upper limit of normal level of ALT) as share of total asthmatic individuals in the study: 4%
[3]; 208 individuals
  ALT- population (less than 1xULN of ALT) as share of total asthmatic individuals in the study: 35%
[3]; compared to ALT levels prior to zileuton intake
  asthmatic individuals that did not experience Zileuton-associated ALT increase: More than 90%
